Source: patent publication US8815306B2, “Methods and compositions for promoting bone and joint health” (Metaproteomics, LLC, priority 2007, dated 2014)
Read-outs that look alike come from different tables or passages of the source.

Key:
[1] = test system: sRANKL mediated TRAP activity (osteoclastogenesis), RAW 264.7; experiment: sRANKL mediated osteoclastogenesis: TRAP activity in RAW 264.7 cells; conditions: for % TRAP activity average (sRANKL induced TRAP activity): RAW 264.7 cells, sRANKL alone normalized to 100%; for activity at 5 µg/mL / activity at 10 µg/mL: Mus musculus, RAW264.7, read-out: % TRAP Activity average; for % TRAP Activity average: Table 8, RAW 264.7, sRANKL 50 ng/ml, RANKL = 100%
Method: Following overnight incubation with the test compounds, sRANKL (50 ng/ml) or medium alone was added to the cell wells. The medium was replaced after 2 days with test compounds and sRANKL and incubation was continued for 3 additional days.
The cells were washed twice with ice cold PBS and lysed in 150 μl of 0.2% triton x-100 in PBS. TRAP activity in cell lysates was determined by using TRAP solution from the kit (Sigma 387A1 kit), according to the manufacturers instructions. A 100 μl cell lysates was added to 100 μl of TRAP solution in 96 well plate and incubated at 37° C. for 1 hr. The absorbance was measured at 555 nm using a plate reader. The protein concentration was estimated using BCA reagent (Sigma) and the final activity was normalized for equal protein.
Inhibition of TRAP activity was determined by comparison of the TRAP activity in the presence of with and with out test compounds in sRANKL, activated osteoclasts. A minimum of two wells were used for each concentration.
Inhibition of TRAP activity was determined by comparison in the presence of with and with out test compounds in sRANKL activated osteoclasts. A minimum of two wells were used for each concentration. The basal TRAP activity levels with out sRANKL stimulation was subtracted from sRANKL stimulation to get the sRANKL induced TRAP activity and the activity was normalized to 100%. The percent activity of test compounds was measured in the presence of sRANKL and referred as sRANKL induced TRAP activity.
A minimum of three concentrations were used to determine median inhibitory concentration (IC50).

[2] = test system: TNFα induced MMP-13 expression; experiment: TNFα induced MMP-13 expression in human chondrocyte cell line SW1353; conditions: for activity at 20 µg/mL / activity at 1 µg/mL / activity at 5 µg/mL / activity at 10 µg/mL: Homo sapiens, SW1353, 24 h; for activity at 20 µg/mL / TNFa Stimulated MMP-13 n = 1 / TNFa Stimulated MMP-13 average / activity at 1 µg/mL / activity at 5 µg/mL / activity at 10 µg/mL: TNF pos = 100%; for Dose dependence of inhibition of TNFα induced MMP-13 expression: Example 2, 20, 10, 5 and 1 ug/ml
Method: The SW1353 human chondrocyte cell line was used as described below.
Cells were grown and subcultured in 96-well plates at a density of 8×10^4 cells per well and allowed to reach ˜80% confluence overnight. Test compounds in medium were added to the cells at a final concentration of 0.1% DMSO. Following one hour of incubation with the test compounds, TNFα (10 ng/ml) or medium alone was added to the cell wells and incubation continued for 24 hours. The supernatant media was subsequently collected for MMP-13 determination.
Determination of MMP-13: A commercial, non-radioactive procedure for quantification of MMP-13 was used according to the manufacturer's instructions using MMP-13 as a standard. A minimum of 3 wells were used for each test condition.
The amount of MMP-13 release into the medium was determined by comparison of the MMP-13 generated in the presence or absence of TNFα and test compounds. A minimum of three wells were used for each test condition. The basal MMP-without 13 levels without TNFα stimulation was subtracted from TNF stimulation to determine the TNFα induced MMP-13 expression in the medium and the levels normalized to 100%. The percent activity of test compounds was measured in the presence of TNFα and referred as TNFα induced MMP-13 expression.
A minimum of three concentrations were used to determine the dose-response curve and a median inhibitory concentration (IC50).

[3] = read-out: TNFa Stimulated MMP-13 average, Table 4, 20 ug/mL, SW1353, TNFα 10 ng/ml 24 h
[4] = Table 4, 20 ug/mL, SW1353, TNFα 10 ng/ml 24 h
[5] = read-out: TNFa Stimulated MMP-13 average, Table 5, 1 ug/mL, SW1353
[6] = read-out: TNFa Stimulated MMP-13 average, Table 5, 5 ug/mL, SW1353
[7] = read-out: TNFa Stimulated MMP-13 average, Table 5, 10 ug/mL, SW1353
[8] = read-out: TNFa Stimulated MMP-13 average, Table 5, 20 ug/mL, SW1353

Compound | % TRAP activity average (sRANKL induced TRAP activity) ([1]; 1 ug/mL test compound) [%] | % TRAP activity average (sRANKL induced TRAP activity) ([1]; 5 ug/mL test compound) [%] | % TRAP activity average (sRANKL induced TRAP activity) ([1]; 10 ug/mL test compound) [%] | activity at 5 µg/mL [1] [%] | activity at 10 µg/mL [1] [%] | activity at 20 µg/mL [2, 3] [%] | TNFa Stimulated MMP-13 average [2, 4] [%] | further results
COc1ccc2cc3[n+](cc2c1OC)CCc1cc2c(cc1-3)OCO2 [Berberine, 7,8,13,13a-tetrahydro-9,10-dimethoxy-2,3-(methylenedioxy)-berbinium] | 68 | 15 | 7 | 4 | -8 | -39 | – | TNFa Stimulated MMP-13 n = 1 ([2]; Table 5, 1 ug/mL, SW1353): −1%; TNFa Stimulated MMP-13 n = 1 ([2]; Table 5, 5 ug/mL, SW1353): −4%; TNFa Stimulated MMP-13 n = 1 ([2]; Table 5, 10 ug/mL, SW1353): −4%; TNFa Stimulated MMP-13 n = 1 ([2]; Table 5, 20 ug/mL, SW1353): −4%
CC/C=C\C/C=C\C/C=C\C/C=C\C/C=C\C/C=C\CCC(=O)O [DHA] | – | – | – | – | – | – | 265 | % TRAP Activity average ([1]; 5 ug/mL): 120%; % TRAP Activity average ([1]; 10 ug/mL): 105%
C[C@]12CC[C@H](O)CC1=CC[C@@H]1[C@@H]2CC[C@]2(C)C(=O)CC[C@@H]12 [DHEA, reference compound] | – | – | – | – | – | – | −2 | % TRAP Activity average ([1]; 5 ug/mL): 46%; % TRAP Activity average ([1]; 10 ug/mL): 33%; Dose dependence of inhibition of TNFα induced MMP-13 expression ([2]; SW1353): dose dependently (20, 10, and 1 ug/ml) inhibited; TNFa Stimulated MMP-13 average ([2]; Table 5, 1 ug/mL, SW1353): 111%; TNFa Stimulated MMP-13 average ([2]; Table 5, 5 ug/mL, SW1353): 108%; TNFa Stimulated MMP-13 average ([2]; Table 5, 10 ug/mL, SW1353): 64%; TNFa Stimulated MMP-13 average ([2]; Table 5, 20 ug/mL, SW1353): 5%
O=c1c(-c2ccc(O)cc2)coc2cc(O)cc(O)c12 [Genistein] | – | – | – | 91 | 72 | 27 | – | –
CC1(C)C=Cc2c(ccc3c2OC[C@@H](c2ccc(O)cc2O)C3)O1 [Glabridin] | – | – | – | 82 | 75 | 79 | – | –
N[C@H]1C(O)O[C@H](CO)[C@@H](O)[C@@H]1O (some centres unmarked) [Glucosamine] | 179 | 183 | 269 | 75 | 48 | 77 | – | TNFa Stimulated MMP-13 n = 1 ([2]; Table 5, 1 ug/mL, SW1353): 126%; TNFa Stimulated MMP-13 n = 1 ([2]; Table 5, 5 ug/mL, SW1353): 137%; TNFa Stimulated MMP-13 n = 1 ([2]; Table 5, 10 ug/mL, SW1353): 107%; TNFa Stimulated MMP-13 n = 1 ([2]; Table 5, 20 ug/mL, SW1353): 105%
COc1ccc([C@@H]2CC(=O)c3c(O)cc(O[C@@H]4O[C@H](CO[C@@H]5O[C@@H](C)[C@H](O)[C@@H](O)[C@H]5O)[C@@H](O)[C@H](O)[C@H]4O)cc3O2)cc1O [Hesperidin] | – | – | – | – | – | – | 13 | % TRAP Activity average ([1]; 5 ug/mL): 81%; % TRAP Activity average ([1]; 10 ug/mL): 76%
CC(C)Oc1ccc2c(=O)c(-c3ccccc3)coc2c1 [Ipriflavone, reference compound] | 168 | 164 | 82 | – | – | -42 | – | Dose dependence of inhibition of TNFα induced MMP-13 expression ([2]; SW1353): dose dependently (20, 10, and 1 ug/ml) inhibited; activity at 1 µg/mL [2, 5]: 86%; activity at 5 µg/mL [2, 6]: 20%; activity at 10 µg/mL [2, 7]: 0%; activity at 20 µg/mL [2, 8]: 3%
CCCCC/C=C\C/C=C\CCCCCCCC(=O)O [Linoleic Acid] | – | – | – | – | – | 23 | – | –
CC1(C)CC[C@]2(C(=O)O)CC[C@]3(C)C(=CC[C@@H]4[C@@]5(C)CC[C@H](O)C(C)(C)[C@@H]5CC[C@]43C)[C@@H]2C1 [Oleanolic Acid] | 139 | 63 | 32 | 61 | 35 | – | – | activity at 10 µg/mL ([2]; read-out: TNFa Stimulated MMP-13 average, Table 4, 10 ug/mL, SW1353, TNFα 10 ng/ml 24 h): 17%; TNFa Stimulated MMP-13 n = 1 ([2]; Table 5, 1 ug/mL, SW1353): 95%; TNFa Stimulated MMP-13 n = 1 ([2]; Table 5, 5 ug/mL, SW1353): 38%; TNFa Stimulated MMP-13 n = 1 ([2]; Table 5, 10 ug/mL, SW1353): 43%; TNFa Stimulated MMP-13 n = 1 ([2]; Table 5, 20 ug/mL, SW1353): 26%
C/C=C1/[C@H](O[C@@H]2O[C@H](CO)[C@@H](O)[C@H](O)[C@H]2O)OC=C(C(=O)OC)[C@H]1CC(=O)OCCc1ccc(O)c(O)c1 [Oleuropein] | – | – | – | 82 | 81 | -31 | – | –
O=C(CCc1ccc(O)cc1)c1c(O)cc(O)cc1O[C@@H]1O[C@H](CO)[C@@H](O)[C@H](O)[C@H]1O [Phloridzin] | – | – | – | 103 | 150 | 77 | – | –
O=C([O-])CC(O)(CC(=O)[O-])C(=O)[O-].[K+].[K+].[K+] [Potassium Citrate] | – | – | – | – | – | – | 95 | –
O=c1c(O)c(-c2ccc(O)c(O)c2)oc2cc(O)cc(O)c12 [Quercetin] | – | – | – | 73 | 62 | -65 | – | –
Oc1ccc(C=Cc2cc(O)cc(O)c2)cc1 [Resveratrol] | 117 | 17 | 16 | 11 | 2 | -42 | – | Dose dependence of inhibition of TNFα induced MMP-13 expression ([2]; SW1353): dose dependently (20, 10, and 1 ug/ml) inhibited; activity at 1 µg/mL [2, 5]: 96%; activity at 5 µg/mL [2, 6]: 88%; activity at 10 µg/mL [2, 7]: 53%; activity at 20 µg/mL [2, 8]: 45%
C[C@@H]1O[C@@H](OC[C@H]2O[C@@H](Oc3c(-c4ccc(O)c(O)c4)oc4cc(O)cc(O)c4c3=O)[C@H](O)[C@@H](O)[C@@H]2O)[C@H](O)[C@H](O)[C@H]1O [Rutin] | – | – | – | 106 | 74 | -7 | – | –
O=C1O[C@H]([C@@H](O)CO)C(O)=C1O [Vitamin C] | – | – | – | – | – | 370 | – | –
CC(C)=CCC/C(C)=C/CC/C(C)=C/CC/C(C)=C/CC1=C(C)C(=O)c2ccccc2C1=O [Vitamin K2] | – | – | – | – | – | – | 56 | –
Conjugated Linoleic acid | 86 | 81 | 79 | – | – | – | – | –
Hyaluronic Acid | 122 | 130 | 111 | – | – | – | 105 | % TRAP Activity average ([1]; 5 ug/mL): 35%; % TRAP Activity average ([1]; 10 ug/mL): 2%
Inulin | – | – | – | – | – | – | 33 | % TRAP Activity average ([1]; 5 ug/mL): 87%; % TRAP Activity average ([1]; 10 ug/mL): 69%
